# From patent US8642643B2, “CXCR2 antagonists” (Sanofi, priority 2006, dated 2014)
# Target: T1, human CXCR2 (Homo sapiens, UniProt P25025)
# T1 construct: expressed in transfected cells; host or cells: CHO-K1
# T1 sequence (P25025 1-360): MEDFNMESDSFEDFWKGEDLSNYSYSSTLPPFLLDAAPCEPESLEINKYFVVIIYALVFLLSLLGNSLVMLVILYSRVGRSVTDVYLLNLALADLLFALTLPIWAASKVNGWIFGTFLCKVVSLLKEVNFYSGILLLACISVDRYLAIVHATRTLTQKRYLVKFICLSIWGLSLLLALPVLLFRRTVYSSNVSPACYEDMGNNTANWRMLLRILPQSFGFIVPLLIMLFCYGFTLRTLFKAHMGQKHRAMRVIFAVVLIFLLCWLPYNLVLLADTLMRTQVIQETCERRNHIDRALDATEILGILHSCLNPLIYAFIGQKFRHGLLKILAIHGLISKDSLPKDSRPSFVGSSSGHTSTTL
# Assay: CXCR2 inhibition: calcium fluorescence assay (FLIPR)
# Assay type: cell-based
# Conditions: chemokine IL-8; CHO-K1 cells stably transfected with human CXCR2 and Gα16; calcium response (Fluo-4)
# Text: Determination of CXCR2 Inhibition: Calcium Fluorescence Assay (FLIPR)
# The assay is based on the detection of intracellular calcium changes detected by the selective, calcium-chelating dye, Fluo-4 (Molecular Probes). A large fluorescence intensity increase is observed upon calcium association with Fluo-4. The dye is delivered to the cell interior using an acetoxymethylester form of Fluo-4, where the intracellular esterase activity results in the charged species being released and trapped within the cytoplasm of the cell. […] By co-expressing the CXCR2 receptor and the promiscuous Gα16 protein, activation of this chemokine receptor is directed into this phospholipase C cascade resulting in intracellular calcium mobilization.
# The CHO-K1 cells stably transfected with human CXCR2 and the promiscuous Gα16 protein were maintained in a log phase of growth at 37° C. and 5% CO2 in the following media: Iscove's, 10% FBS, 1× Penicillin-Streptomycin, 400 μg/ml G418 and 350 μg/ml Zeocin. Approximately 24-48 hours prior to the assay, 20,000-30,000 cells/well were plated onto a 96-well black/clear bottomed assay plate (Becton Dickinson) with a well volume of 180 μl. For dye loading the culture medium was carefully removed and replaced by 100 μl/well dye solution (4 μM Fluo-4 in 135 mM NaCl, 5 mM KCl, 1 mM magnesium sulphate, 5 mM glucose, 20 mM hepes, 2.5 mM probenecid; pH 7.4). Cells were incubated for 1 h at 37° C., and then washed 3× with buffer. After washing 90 μl buffer/well were left. Increasing concentrations of compound was added in 45 μl buffer (4× concentrated) followed by 10 min incubation at 37° C. Then the chemokine (10-100 nM) was applied in 45 μl buffer (4× concentrated) and the measurement performed for 2 min. The IC50 value of a compound was determined by calculation of % inhibition of total calcium response to the chemokine.
row,IC50,SMILES
1,400 nM,"CCC(C)(NC(=O)c1ccc2c(c1OCc1nc3ccccc3s1)CCCC2)C(=O)O (stereo not shown) [Example 5, 2-{[1-(Benzothiazol-2-ylmethoxy)-5,6,7,8-tetrahydro-naphthalene-2-carbonyl]-amino}-2-methyl-butyric acid]"
2,1800 nM,"CC(C)(NC(=O)c1ccc2c(c1OCc1ccc(C(F)(F)F)cc1F)CCCC2)C(=O)O [Example 8, 2-{[1-(2-Fluoro-4-trifluoromethyl-benzyloxy)-5,6,7,8-tetrahydro-naphthalene-2-carbonyl]-amino}-2-methyl-propionic acid]"
3,600 nM,"CC(C)(NC(=O)c1ccc2c(c1OCc1nc3ccccc3s1)CCCC2)C(=O)O [Example 2, 2-{[1-(Benzothiazol-2-ylmethoxy)-5,6,7,8-tetrahydro-naphthalene-2-carbonyl]-amino}-2-methyl-propionic acid]"
4,1600 nM,"Cc1cc(C(=O)NC(C)(C)C(=O)O)c(OCc2ccc(C(F)(F)F)cc2)c2c1CCC2 [Example 11, 2-Methyl-2-{[7-methyl-4-(4-trifluoromethyl-benzyloxy)-indane-5-carbonyl]-amino}-propionic acid]"
5,1100 nM,"CC(C)(NC(=O)c1ccc2sccc2c1OCc1ccc(C(F)(F)F)cc1)C(=O)O [Example 13, 2-Methyl-2-{[4-(4-trifluoromethyl-benzyloxy)-benzo[b]thiophene-5-carbonyl]-amino}-propionic acid]"
6,700 nM,"CC(C)(NC(=O)c1ccc2ccsc2c1OCc1ccc(C(F)(F)F)cc1)C(=O)O [Example 12, 2-Methyl-2-{[7-(4-trifluoromethyl-benzyloxy)-benzo[b]thiophene-6-carbonyl]-amino}-propionic acid]"
7,1500 nM,"CCC(C)(NC(=O)c1ccc2c(c1OCc1ccc(OC(F)(F)F)cc1)CCCC2)C(=O)O (stereo not shown) [Example 9, 2-Methyl-2-{[1-(4-trifluoromethoxy-benzyloxy)-5,6,7,8-tetrahydro-naphthalene-2-carbonyl]-amino}-butyric acid]"
